Measurements published in patent US10800792B2, “Inhibitors of Bruton's tyrosine kinase and method of their use” (JANSSEN PHARMACEUTICA NV, priority 2015, dated 2020).

biological target: unphosphorylated-BTK kinase domain (UP-BTK), GST-tagged human BTK (389-659aa) (Homo sapiens (Human), UniProt Q06187); assay: BTK kinase Lanthascreen binding assay; settings: Lanthascreen tracer competition, 60 minutes incubation; pIC50 = negative log of the IC50 in molar
Procedure, shortened: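 A fluorescent tracer is bound to unphosphorylated BTK; test compound is added to compete it off; the Lanthascreen signal is read and IC50 is fitted, then reported as its negative log in molar.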

Sequence of unphosphorylated-BTK kinase domain (UP-BTK), GST-tagged human BTK (389-659aa) (Q06187 389-659): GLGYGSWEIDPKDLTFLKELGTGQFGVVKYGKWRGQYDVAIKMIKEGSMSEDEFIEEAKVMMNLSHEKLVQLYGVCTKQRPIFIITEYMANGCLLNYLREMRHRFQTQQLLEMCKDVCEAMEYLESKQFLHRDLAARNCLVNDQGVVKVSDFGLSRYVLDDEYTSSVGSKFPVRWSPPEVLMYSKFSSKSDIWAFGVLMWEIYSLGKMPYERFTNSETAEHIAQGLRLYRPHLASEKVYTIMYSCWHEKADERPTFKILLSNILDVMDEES

Structure (SMILES) | BTK_I_binding pIC50
C=CC(=O)N1CCC[C@@H](NC(=O)c2sc3nccc4c3c2NC(=O)N4c2ccc(Oc3cccnc3C)cc2)C1 [Example 771, (R)—N-(1-Acryloylpiperidin-3-yl)-5-(4-((2-methylpyridin-3-yl)oxy)phenyl)-4-oxo-4,5-dihydro-3H-1-thia-3,5,8-triazaacenaphthylene-2-carboxamide] | 7.4
CCC(=O)N1CCC[C@H](NC(=O)c2sc3nccc4c3c2NC(=O)N4c2ccc(Oc3ccccc3)cc2C)C1 [Example 891, (S)-5-(2-Methyl-4-phenoxyphenyl)-4-oxo-N-(1-propionylpiperidin-3-yl)-4,5-dihydro-3H-1-thia-3,5,8-triazaacenaphthylene-2-carboxamide] | 7.0
Cc1cc(Oc2ccccc2)ccc1N1C(=O)Nc2c(NC(=O)C3CCN(C#N)CC3)sc3nccc1c23 [Example 822, 1-Cyano-N-(5-(2-methyl-4-phenoxyphenyl)-4-oxo-4,5-dihydro-3H-1-thia-3,5,8-triazaacenaphthylen-2-yl)piperidine-4-carboxamide] | 5.8
CCC(=O)N1CCC[C@@H](NC(=O)c2sc3nccc4c3c2NC(=O)N4c2ccc(Oc3cccnn3)cc2C)C1 [Example 809, (R)-5-(2-Methyl-4-(pyridazin-3-yloxy)phenyl)-4-oxo-N-(1-propionylpiperidin-3-yl)-4,5-dihydro-3H-1-thia-3,5,8-triazaacenaphthylene-2-carboxamide] | <6
Cc1nc(Oc2ccccc2)ccc1N1C(=O)Nc2c(C(=O)N[C@@H]3CCCNC3)sc3nccc1c23 [Example 711, (R)-5-(2-methyl-6-phenoxypyridin-3-yl)-4-oxo-N-(piperidin-3-yl)-4,5-dihydro-3H-1-thia-3,5,8-triazaacenaphthylene-2-carboxamide] | 6.6
C=CC(=O)N1CCC[C@@H](NC(=O)c2sc3nccc4c3c2NC(=O)N4c2ccc(OC3CCCC3)cc2C)C1 [Example 693, (R)—N-(1-Acryloylpiperidin-3-yl)-5-(4-(cyclopentyloxy)-2-methylphenyl)-4-oxo-4,5-dihydro-3H-1-thia-3,5,8-triazaacenaphthylene-2-carboxamide] | 7.9
CC(C)(C)OC(=O)N1C[C@H](NC(=O)c2sc3nccc4c3c2NC(=O)N4c2ccc(Oc3ccccc3)cc2)[C@@H](F)C1 [Example 625, (3S,4S)-tert-Butyl 3-fluoro-4-(4-oxo-5-(4-phenoxyphenyl)-4,5-dihydro-3H-1-thia-3,5,8-triazaacenaphthylene-2-carboxamido)pyrrolidine-1-carboxylate] | 5.9
O=C(N[C@@H]1CCCNC1)c1sc2nccc3c2c1NC(=O)N3c1cccc(OC2CCCCC2)c1 [Example 616, (R)-5-(3-(Cyclohexyloxy)phenyl)-4-oxo-N-(piperidin-3-yl)-4,5-dihydro-3H-1-thia-3,5,8-triazaacenaphthylene-2-carboxamide] | 6.1
Cc1cc(Oc2ccccc2)ccc1N1C(=O)Nc2c(C(=O)NC3CCN(C#N)CC3)sc3nccc1c23 [Example 872, N-(1-Cyanopiperidin-4-yl)-5-(2-methyl-4-phenoxyphenyl)-4-oxo-4,5-dihydro-3H-1-thia-3,5,8-triazaacenaphthylene-2-carboxamide] | 7.2

same assay, conditions: Lanthascreen tracer competition, 60 minutes incubation; pIC50 = negative log of the IC50 in molar; read-out: BTK_I_binding pIC50 (converted)

Structure (SMILES) | IC50
C=CC(=O)N1CCC[C@@H](NC(=O)c2sc3nccc4c3c2NC(=O)N4c2ccc(OC3CCOCC3)cc2C)C1 (single isomer, unassigned) [Example 813, (R)—N-(1-Acryloylpiperidin-3-yl)-5-(*S)-(2-methyl-4-((tetrahydro-2H-pyran-4-yl)oxy)phenyl)-4-oxo-4,5-dihydro-3H-1-thia-3,5,8-triazaacenaphthylene-2-carboxamide] | > 1000 nM

same assay, conditions: pIC50 = negative log of the IC50 in molar; 60 minutes incubation, 50 nM Tracer 236

Structure (SMILES) | BTK_I_binding pIC50
CCNC(C)(C)/C=C(\C#N)C(=O)N1CCC[C@@H](NC(=O)c2sc3nccc4c3c2NC(=O)N4c2ccc(Oc3ccccc3)cc2C)C1 [Example 212, (R,E)-N-(1-(2-Cyano-4-(ethylamino)-4-methylpent-2-enoyl)piperidin-3-yl)-5-(2-methyl-4-phenoxyphenyl)-4-oxo-4,5-dihydro-3H-1-thia-3,5,8-triazaacenaphthylene-2-carboxamide] | 7.0
COCc1cccc(Oc2ccc(N3C(=O)Nc4c(C(=O)N[C@@H]5CCCN(C)C5)sc5nccc3c45)c(C)c2)c1 [Example 226, (R)-5-(4-(3-(Methoxymethyl)phenoxy)-2-methylphenyl)-N-(1-methylpiperidin-3-yl)-4-oxo-4,5-dihydro-3H-1-thia-3,5,8-triazaacenaphthylene-2-carboxamide] | 6.5
Cc1cc(Oc2ccccc2)ccc1N1C(=O)Nc2c(C(=O)N[C@@H]3CCCN(C(=O)/C(C#N)=C/C(C)(C)N4CCCCC4)C3)sc3nccc1c23 [Example 150, (R,E)-N-(1-(2-Cyano-4-methyl-4-(piperidin-1-yl)pent-2-enoyl)piperidin-3-yl)-5-(2-methyl-4-phenoxyphenyl)-4-oxo-4,5-dihydro-3H-1-thia-3,5,8-triazaacenaphthylene-2-carboxamide] | 6.9
Cc1cc(Oc2ccccc2C(F)(F)F)ccc1N1C(=O)Nc2c(C(=O)N[C@@H]3CCCN(C)C3)sc3nccc1c23 [Example 242, (R)-5-(2-Methyl-4-(2-(trifluoromethyl)phenoxy)phenyl)-N-(1-methylpiperidin-3-yl)-4-oxo-4,5-dihydro-3H-1-thia-3,5,8-triazaacenaphthylene-2-carboxamide] | 6.7
Cc1cc(Oc2ccccc2)ccc1N1C(=O)Nc2c(C(=O)N[C@@H]3C[C@@H](O)CN(C)C3)sc3nccc1c23 [Example 168, N-((3R,5R)-5-Hydroxy-1-methylpiperidin-3-yl)-5-(2-methyl-4-phenoxyphenyl)-4-oxo-4,5-dihydro-3H-1-thia-3,5,8-triazaacenaphthylene-2-carboxamide] | 6.8
Cc1cc(Oc2ccccc2)ccc1N1C(=O)Nc2c(C(=O)NC[C@@H]3CCCN3)sc3nccc1c23 [Example 269, (S)-5-(2-Methyl-4-phenoxyphenyl)-4-oxo-N-(pyrrolidin-2-ylmethyl)-4,5-dihydro-3H-1-thia-3,5,8-triazaacenaphthylene-2-carboxamide] | 6.3
COCCC(=O)N1CCC[C@@H](NC(=O)c2sc3nccc4c3c2NC(=O)N4c2ccc(Oc3ccccc3)c(F)c2C)C1 [Example 89, (R)-5-(3-Fluoro-2-methyl-4-phenoxyphenyl)-N-(1-(3-methoxypropanoyl)piperidin-3-yl)-4-oxo-4,5-dihydro-3H-1-thia-3,5,8-triazaacenaphthylene-2-carboxamide] | 7.1
Cc1c(N2C(=O)Nc3c(C(=O)N[C@@H]4CCCN(C(=O)CCS(C)(=O)=O)C4)sc4nccc2c34)ccc(Oc2ccccc2)c1F [Example 113, (R)-5-(3-Fluoro-2-methyl-4-phenoxyphenyl)-N-(1-(3-(methylsulfonyl)propanoyl)piperidin-3-yl)-4-oxo-4,5-dihydro-3H-1-thia-3,5,8-triazaacenaphthylene-2-carboxamide] | 7.3
C=CC(=O)N1CCC[C@@H](NC(=O)c2sc3nccc4c3c2NC(=O)N4c2ccc(Oc3ccccc3)cc2C(F)(F)F)C1 [Example 278, (R)—N-(1-Acryloylpiperidin-3-yl)-4-oxo-5-(4-phenoxy-2-(trifluoromethyl)phenyl)-4,5-dihydro-3H-1-thia-3,5,8-triazaacenaphthylene-2-carboxamide] | 6.2
COCCC(=O)N1CC[C@@H](NC(=O)c2sc3nccc4c3c2NC(=O)N4c2ccc(Oc3ccccc3)cc2C)C1 [Example 72, (R)—N-(1-(3-Methoxypropanoyl)pyrrolidin-3-yl)-5-(2-methyl-4-phenoxyphenyl)-4-oxo-4,5-dihydro-3H-1-thia-3,5,8-triazaacenaphthylene-2-carboxamide] | 7.4

same assay, conditions: unphosphorylated-BTK kinase domain, 50 nM Tracer 236, 60 minutes; pIC50 = negative log of the IC50 in molar

Structure (SMILES) | BTK_I_binding pIC50
C=CC(=O)N1CCC[C@@H](NC(=O)c2sc3nccc4c3c2NC(=O)N4c2ccc(-c3ccccc3)cc2)C1 [Example 423, (R)-5-([1,1′-Biphenyl]-4-yl)-N-(1-acryloylpiperidin-3-yl)-4-oxo-4,5-dihydro-3H-1-thia-3,5,8-triazaacenaphthylene-2-carboxamide] | 6.3
Cc1cc(Oc2ccccc2)ccc1N1C(=O)Nc2c(C(=O)NCC(=O)N3CCOCC3)sc3nccc1c23 [Example 315, 5-(2-Methyl-4-phenoxyphenyl)-N-(2-morpholino-2-oxoethyl)-4-oxo-4,5-dihydro-3H-1-thia-3,5,8-triazaacenaphthylene-2-carboxamide] | 6.9
Cc1cc(Oc2ccccc2)ccc1N1C(=O)Nc2c(C(=O)N[C@@H]3CCCN(C(=O)C(Cl)=CC4CC4)C3)sc3nccc1c23 (mixture of isomers) [Example 402, (R,EZ)—N-(1-(2-Chloro-3-cyclopropylacryloyl)piperidin-3-yl)-5-(2-methyl-4-phenoxyphenyl)-4-oxo-4,5-dihydro-3H-1-thia-3,5,8-triazaacenaphthylene-2-carboxamide] | 6.5
O=C1CCC(NC(=O)c2sc3nccc4c3c2NC(=O)N4c2ccc(Oc3ccccc3)cc2)CN1 (stereo not shown) [Example 578, 4-Oxo-N-(6-oxopiperidin-3-yl)-5-(4-phenoxyphenyl)-4,5-dihydro-3H-1-thia-3,5,8-triazaacenaphthylene-2-carboxamide] | 6.9

same assay, conditions: unphosphorylated-BTK kinase domain, 50 nM Tracer 236, 60 minutes; pIC50 = negative log of the IC50 in molar; read-out: BTK_I_binding pIC50 (converted)

Structure (SMILES) | IC50
[2H]c1c([2H])c([2H])c(Oc2ccc(N3C(=O)Nc4c(C(=O)N[C@@H]5CCCN(C#N)C5)sc5nccc3c45)c(C)c2)c([2H])c1[2H] [Example 379, (R)—N-(1-Cyanopiperidin-3-yl)-5-(2-methyl-4-(2,3,4,5,6-pentadeuteriophenoxy)phenyl)-4-oxo-4,5-dihydro-3H-1-thia-3,5,8-triazaacenaphthylene-2-carboxamide] | 31.6 nM
